{
  "source": "paper PMC3188285",
  "about": "(Journal of Medicinal Chemistry, 2011)",
  "key": {"HeLa cells": {"system": "HeLa cells", "experiment": "Cytotoxicity assay", "assay_type": "cell-based, human", "conditions": "10, 1, 0.1 and 0.01 μM; 24 or 48 h; triplicate"}, "CREBBP": {"system": "CREBBP", "assay_type": "binding, human", "conditions": "from ΔTm^obs, compound 100 μM"}},
  "data": [
    {"smiles": "Cc1noc(C)c1-c1ccc2c(c1)CN(C)C(=O)N2", "note": "[Compound 1, 6-(3,5-dimethylisoxazol-4-yl)-3-methyl-3,4-dihydroquinazolin-2(1H)-one]", "values": [
      {"measurement": "cytotoxicity in HeLa cells (MTT)", "setting": "HeLa cells", "value": "significant cytotoxicity"}
    ]},
    {"smiles": "CCOc1cc(-c2c(C)noc2C)cc(C(C)O)c1", "note": "(racemic) [Compound 4d, (RS)-1-(3-(3,5-Dimethylisoxazol-4-yl)-5-ethoxyphenyl)ethanol]", "values": [
      {"measurement": "cytotoxicity in HeLa cells (MTT)", "setting": "HeLa cells", "value": "did not show any cytotoxicity"}
    ]},
    {"smiles": "CCOc1cc(C(=O)O)cc(-c2c(C)noc2C)c1", "note": "[Compound 4b, 3-(3,5-Dimethylisoxazol-4-yl)-5-ethoxybenzoic acid]", "values": [
      {"measurement": "selectivity for CREBBP over the BET bromodomains", "setting": "CREBBP", "value": "modest"},
      {"measurement": "cytotoxicity in HeLa cells (MTT)", "setting": "HeLa cells", "value": "did not show any cytotoxicity"}
    ]}
  ]
}
